Measurements: ChEMBL document CHEMBL2010736 (ACS Med Chem Lett, 2011)
The source made the active and inactive calls. No cut-off for these calls is given here.

Tests used:
[1] = target: T1, Adenosine receptor A1 (Homo sapiens) (UniProt P30542); experiment: Displacement of [3H]R-PIA from human recombinant adenosine receptor-1 expressed in CHO cell membrane at 10 uM after 60 mins by liquid scintillation counting; format: cell membranes
T1 sequence (whole entry): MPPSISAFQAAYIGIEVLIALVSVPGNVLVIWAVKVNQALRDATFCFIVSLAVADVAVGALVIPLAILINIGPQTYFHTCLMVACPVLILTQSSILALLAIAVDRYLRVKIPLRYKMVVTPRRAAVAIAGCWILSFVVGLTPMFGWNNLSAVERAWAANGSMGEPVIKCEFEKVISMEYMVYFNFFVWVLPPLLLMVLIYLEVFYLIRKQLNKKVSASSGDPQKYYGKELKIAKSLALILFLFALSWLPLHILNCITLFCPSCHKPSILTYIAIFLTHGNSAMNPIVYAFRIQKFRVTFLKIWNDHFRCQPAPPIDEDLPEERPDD

Adenosine receptor A3 = target: T2, Adenosine receptor A3 (Homo sapiens, UniProt P0DMS8); experiment: Displacement of [125I]AB-MECA from human recombinant adenosine receptor-3 expressed in CHO cell membrane after 60 mins by gamma-counting; format: cell membranes
T2 sequence (P0DMS8 whole entry): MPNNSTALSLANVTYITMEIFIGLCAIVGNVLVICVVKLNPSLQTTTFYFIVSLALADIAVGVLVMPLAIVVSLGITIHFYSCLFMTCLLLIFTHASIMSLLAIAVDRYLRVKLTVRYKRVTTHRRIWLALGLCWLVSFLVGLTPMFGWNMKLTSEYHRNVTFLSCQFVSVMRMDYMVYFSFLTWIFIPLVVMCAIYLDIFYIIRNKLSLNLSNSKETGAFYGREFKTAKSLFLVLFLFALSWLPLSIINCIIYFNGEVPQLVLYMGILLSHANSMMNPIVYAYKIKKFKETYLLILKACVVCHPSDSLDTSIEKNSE

Adenosine receptor A2a [2] = target: T3, Adenosine receptor A2a (Homo sapiens, UniProt P29274); experiment: Displacement of [3H]CGS21680 from human recombinant adenosine receptor-2A expressed in HEK293 cell membrane at 10 uM after 60 mins by liquid scintillation counting; format: cell membranes
[3] = target: T1, Adenosine receptor A1 (Homo sapiens); experiment: Agonist activity at human recombinant adenosine receptor-1 expressed in CHO cells assessed as inhibition of forskolin-stimulated cAMP production at 10 uM preincubated for 45 mins prior forskolin-induction measured after 15 mins by immunoassay relative to 10 uM CPA; format: functional, cell-based
Adenosine receptor A1 [4] = target: T4, Adenosine receptor A1 (Rattus norvegicus, UniProt P25099); experiment: Displacement of [3H]R-PIA from rat forebrain adenosine receptor-1
T4 sequence (P25099 whole entry): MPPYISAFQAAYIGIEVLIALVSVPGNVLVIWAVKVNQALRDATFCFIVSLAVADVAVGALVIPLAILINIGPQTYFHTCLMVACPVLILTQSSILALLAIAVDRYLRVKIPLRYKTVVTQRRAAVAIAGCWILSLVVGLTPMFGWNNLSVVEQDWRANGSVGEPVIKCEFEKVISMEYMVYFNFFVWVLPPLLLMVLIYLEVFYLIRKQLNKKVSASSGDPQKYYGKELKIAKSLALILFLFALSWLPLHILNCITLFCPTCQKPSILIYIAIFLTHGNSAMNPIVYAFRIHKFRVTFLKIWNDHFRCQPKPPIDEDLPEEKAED

Homo sapiens [5] = species on record: Homo sapiens; experiment: Selectivity ratio of Ki for human recombinant adenosine receptor-3 to Ki for human recombinant adenosine receptor-1
[6] = target: T5, Adenosine receptor A1 (Rattus norvegicus) (UniProt P25099); experiment: Antagonist activity at adenosine receptor-1 in rat adipocytes; format: functional, cell-based
T5 sequence (whole entry): T4 sequence (P25099 whole entry)

[7] = target: T6, Adenosine receptor A3 (Rattus norvegicus) (UniProt P28647); experiment: Partial agonist activity at rat adenosine receptor-3; format: functional
T6 sequence (whole entry): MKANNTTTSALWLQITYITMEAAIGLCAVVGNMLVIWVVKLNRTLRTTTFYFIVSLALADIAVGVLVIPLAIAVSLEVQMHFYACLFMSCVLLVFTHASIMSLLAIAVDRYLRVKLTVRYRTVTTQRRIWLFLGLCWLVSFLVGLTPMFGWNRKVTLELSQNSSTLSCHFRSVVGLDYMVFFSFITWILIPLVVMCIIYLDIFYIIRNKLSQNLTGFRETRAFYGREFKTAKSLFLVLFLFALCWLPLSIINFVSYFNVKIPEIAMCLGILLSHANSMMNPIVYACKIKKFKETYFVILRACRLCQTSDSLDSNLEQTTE

Adenosine receptor A1 [8] = target: T7, Adenosine receptor A1 (Homo sapiens, UniProt P30542); experiment: Agonist activity at human recombinant adenosine receptor-1 expressed in CHO cells assessed as inhibition of forskolin-stimulated cAMP production preincubated for 45 mins prior forskolin-induction measured after 15 mins by immunoassay; format: functional, cell-based
T7 sequence (P30542 whole entry): T1 sequence (whole entry)

Adenosine receptor A1 [9] = target: T7, Adenosine receptor A1; experiment: Displacement of [3H]R-PIA from human recombinant adenosine receptor-1 expressed in CHO cell membrane after 60 mins by liquid scintillation counting; format: cell membranes
Adenosine receptor A2a [10] = target: T3, Adenosine receptor A2a; experiment: Displacement of [3H]CGS21680 from human recombinant adenosine receptor-2A expressed in HEK293 cell membrane after 60 mins by liquid scintillation counting; format: cell membranes
Homo sapiens [11] = species on record: Homo sapiens; experiment: Selectivity ratio of Ki for human recombinant adenosine receptor-1 to Ki for human recombinant adenosine receptor-3

T3 sequence (P29274 whole entry): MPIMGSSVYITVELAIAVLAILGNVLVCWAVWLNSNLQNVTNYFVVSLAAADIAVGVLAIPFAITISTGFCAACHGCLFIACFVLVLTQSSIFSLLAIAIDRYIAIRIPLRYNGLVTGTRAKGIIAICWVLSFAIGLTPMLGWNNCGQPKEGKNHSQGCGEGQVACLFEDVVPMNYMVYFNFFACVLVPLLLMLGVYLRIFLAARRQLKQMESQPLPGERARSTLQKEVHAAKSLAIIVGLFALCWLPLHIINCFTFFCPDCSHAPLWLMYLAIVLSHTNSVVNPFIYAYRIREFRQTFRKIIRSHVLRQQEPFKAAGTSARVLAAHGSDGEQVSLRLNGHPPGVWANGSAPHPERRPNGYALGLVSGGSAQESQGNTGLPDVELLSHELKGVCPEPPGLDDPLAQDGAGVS

| Ki (Adenosine receptor A3) | inhibition (Adenosine receptor A2a [2]) | inhibition [3] | Ki (Adenosine receptor A1 [4]) | SMILES | also measured |
| --- | --- | --- | --- | --- | --- |
| 15.2 nM | 32% |  |  | CCOc1ccccc1CNc1nc(Cl)nc2c1ncn2[C@H]1[C@H](O)[C@H](O)[C@@H]2C[C@@H]21 | inhibition [1]: 34% |
|  |  | 28.6% |  | CCC(CC)Nc1nc(Cl)nc2c1ncn2[C@H]1[C@H](O)[C@H](O)[C@@H]2C[C@@H]21 |  |
|  |  | 79% |  | O[C@@H]1[C@H](O)[C@@H]2C[C@@H]2[C@H]1n1cnc2c(NC3CC3)nc(Cl)nc21 |  |
|  | 41% |  |  | CC(Nc1nc(Cl)nc2c1ncn2[C@H]1[C@H](O)[C@H](O)[C@@H]2C[C@@H]21)C1CC1 (mixture of isomers) |  |
|  | 11% |  |  | CCNc1nc(Cl)nc2c1ncn2[C@H]1[C@H](O)[C@H](O)[C@@H]2C[C@@H]21 |  |
|  | 39% | 50.5% | 1.9 nM | CC(C)Nc1nc(Cl)nc2c1ncn2[C@H]1[C@H](O)[C@H](O)[C@@H]2C[C@@H]21 |  |
|  |  | 81% | 0.8 nM | O[C@@H]1[C@H](O)[C@@H]2C[C@@H]2[C@H]1n1cnc2c(NCC3CC3)nc(Cl)nc21 |  |
| 114 nM | 46% |  |  | O[C@@H]1[C@H](O)[C@@H]2C[C@@H]2[C@H]1n1cnc2c(NCc3cccc(OCCF)c3)nc(Cl)nc21 | Ki (Adenosine receptor A1 [9]): 3580 nM |
|  | 29% | 23.2% |  | O[C@@H]1[C@H](O)[C@@H]2C[C@@H]2[C@H]1n1cnc2c(NCCCF)nc(Cl)nc21 |  |
|  | 32% |  |  | O[C@@H]1[C@H](O)[C@@H]2C[C@@H]2[C@H]1n1cnc2c(NCc3ccccc3OCCF)nc(Cl)nc21 | inhibition [1]: 46% |
|  |  | 68.1% |  | Nc1nc(Cl)nc2c1ncn2[C@H]1[C@H](O)[C@H](O)[C@@H]2C[C@@H]21 |  |

Further lines, the compound ahead of its results:

| SMILES | Ki (Adenosine receptor A3) | inhibition (Adenosine receptor A2a [2]) | inhibition [3] | Ki (Adenosine receptor A1 [4]) | also measured |
| --- | --- | --- | --- | --- | --- |
| O[C@@H]1[C@H](O)[C@@H]2C[C@@H]2[C@H]1n1cnc2c(NC3CCCCC3)nc(Cl)nc21 |  |  | 38% | 0.9 nM | Ratio Ki (Homo sapiens [5]): 2 |
| O[C@@H]1[C@H](O)[C@@H]2C[C@@H]2[C@H]1n1cnc2c(NC3CCCCCC3)nc(Cl)nc21 |  |  | 48.1% |  |  |
| CCCCn1c(=O)c2c(ncn2[C@@H]2O[C@H](C(=O)NC)C[C@H]2O)n(CCCC)c1=O |  |  |  |  | Activity [6]: Active; Activity [7]: Active |
| O[C@@H]1[C@H](O)[C@@H]2C[C@@H]2[C@H]1n1cnc2c(NC3CCC3)nc(Cl)nc21 |  |  |  | 0.7 nM |  |
| O[C@@H]1[C@H](O)[C@@H]2C[C@@H]2[C@H]1n1cnc2c(NC3CCCCCCC3)nc(Cl)nc21 |  | 43% | 40.1% |  | Ratio Ki (Homo sapiens [5]): 2 |
| O[C@@H]1[C@H](O)[C@@H]2C[C@@H]2[C@H]1n1cnc2c(NC(C3CC3)C3CC3)nc(Cl)nc21 |  |  |  | 0.8 nM | EC50 (Adenosine receptor A1 [8]): 40.7 nM |
| O[C@@H]1[C@H](O)[C@@H]2C[C@@H]2[C@H]1n1cnc2c(N[C@H]3C[C@H]4CC[C@H]3C4)nc(Cl)nc21 | 315 nM |  | 62.1% | 0.34 nM | Ki (Adenosine receptor A2a [10]): 2450 nM; Ki (Adenosine receptor A1 [9]): 82.6 nM; Ratio Ki (Homo sapiens [5]): 4 |
| COc1cc(F)c(F)cc1CNc1nc(Cl)nc2c1ncn2[C@H]1[C@H](O)[C@H](O)[C@@H]2C[C@@H]21 | 40.4 nM |  |  |  | Ki (Adenosine receptor A2a [10]): 7510 nM; Ki (Adenosine receptor A1 [9]): 1910 nM |
| O[C@@H]1[C@H](O)[C@@H]2C[C@@H]2[C@H]1n1cnc2c(N[C@@H]3C[C@H]4CC[C@H]3C4)nc(Cl)nc21 | 236 nM |  | 27.8% | 0.7 nM | Ki (Adenosine receptor A2a [10]): 4080 nM; Ki (Adenosine receptor A1 [9]): 200 nM |
| O[C@@H]1[C@H](O)[C@@H]2C[C@@H]2[C@H]1n1cnc2c(NCc3ccccc3F)nc(Cl)nc21 |  | 31% |  | 6 nM | Ratio Ki (Homo sapiens [11]): 115 |
| O[C@@H]1[C@H](O)[C@@H]2C[C@@H]2[C@H]1n1cnc2c(NCc3cc(F)ccc3F)nc(Cl)nc21 | 16.5 nM | 38% |  |  | Ki (Adenosine receptor A1 [9]): 1260 nM |
| COc1ccc(F)c(F)c1CNc1nc(Cl)nc2c1ncn2[C@H]1[C@H](O)[C@H](O)[C@@H]2C[C@@H]21 | 83.2 nM | 30% |  |  | inhibition [1]: 41% |
